# Reference: article PMC6225302, “Depsidone Derivatives and a Cyclopeptide Produced by Marine Fungus Aspergillus unguis under Chemical Induction and by Its Plasma Induced Mutant” (Molecules : A Journal of Synthetic Chemistry and Natural …, 2018)
# Like-named read-outs stand apart in the source and are kept apart here. Where a SMILES comes first, the peptide text is derived from it. [ ]: non-standard residue; d: D form. GABA = NCCCC(=O)O
# What was measured:
# [1] = test system: Candida albicans (ATCC 10231); assay: Antimicrobial paper disc diffusion method; format: cell-based; conditions: C. albicans, 10 μg per disc, paper disc diameter 6.0 mm, mean ± SD of three replicates; for zone of inhibition at 10 µg/disc: Candida albicans, ATCC10231
# Description: (§1) Preliminary antimicrobial tests for compounds 1‒10 were carried out against pathogenetic strains, including Pseudomonas aeruginosa (ATCC 9027), methicillin-resistant Staphylococcus aureus (A7983, clinical isolate donated by Zhijun Yu in Dalian Friendship Hospital, Dalian, China), Vibrio parahemolyticus (ZouB, aquatic pathogen donated by Chongqing Wen in College of Fishery, Guangdong Ocean University, Zhanjiang, China), and Candida albicans (ATCC 10231) using the disc diffusion method. Muller Hinton agar (MHA) and Sabouraud agar (SA) were used for antibacterial and antifungal tests, respectively. For each sample, 10 μg was added onto paper disc (diameter of 6 mm) for tests. The minimum inhibition concentrations (MICs) of the compounds were tested using microdilution methods. Ampicillin and ketoconazole were taken as positive controls for antibacterial and antifungal tests, respectively. Solvents (MeOH and DMSO) were used as blank controls.
# [2] = test system: Pseudomonas aeruginosa (ATCC 9027); assay: Antimicrobial paper disc diffusion method; format: cell-based; conditions: P. aeruginosa, 10 μg per disc, paper disc diameter 6.0 mm, mean ± SD of three replicates; for zone of inhibition at 10 µg/disc: Pseudomonas aeruginosa, ATCC9027
# Description: as §1
# [3] = test system: Vibrio parahemolyticus (ZouB); assay: Antimicrobial paper disc diffusion method; format: cell-based; conditions: V. parahemolyticus, incomplete inhibition, 10 μg per disc, paper disc diameter 6.0 mm, mean ± SD of three replicates; for zone of inhibition at 10 µg/disc: Vibrio
# Description: as §1
# [4] = test system: methicillin-resistant Staphylococcus aureus (A7983, clinical isolate); assay: Antimicrobial paper disc diffusion method; format: cell-based; conditions: MRSA; for zone of inhibition at 10 µg/disc: Staphylococcus aureus; for Zone of Inhibition: 10 μg per disc, paper disc diameter 6.0 mm, mean ± SD of three replicates
# Description: as §1
# [5] = test system: Pseudomonas aeruginosa (ATCC 9027); assay: Antimicrobial microdilution method (MIC); format: cell-based; conditions: ATCC9027, P. aeruginosa
# Description: as §1
# [6] = test system: methicillin-resistant Staphylococcus aureus (A7983, clinical isolate); assay: Antimicrobial microdilution method (MIC); format: cell-based; conditions: MRSA
# Description: as §1
# [7] = test system: Vibrio parahemolyticus (ZouB); assay: microbe, parasite or virus in culture; format: cell-based
# Description: as §1
# [8] = test system: Candida albicans (ATCC 10231); assay: Antimicrobial microdilution method (MIC); format: cell-based; conditions: ATCC10231, C. albicans
# Description: as §1
# [9] = target: T1, Acetylcholinesterase (AChE, from electric eels) (Electrophorus electricus, UniProt O42275); assay: AChE inhibition assay (modified Ellman's method); format: biochemical; conditions: AChE Inhibitory Activity (IC50), 0.2 U/mL, 37 °C
# T1 construct: purchased Sigma-Aldrich
# Description: Acetylcholinesterase (AChE, from electric eels), acetythiocholine iodide (ATCh), 5,5-dithiobis-(2-nitrobenzoic acid) (DTNB), and bovine serum albumin (BSA, A1933) were purchased from Sigma-Aldrich. 100 mM PBS (pH = 7.4) was prepared with K2HPO4 and KH2PO4. In vitro AChE inhibitory activity was measured in 96-well plates using modified Ellman’s methods. […] Each well contained 1 μL of prepared sample, 49 μL of PBS, 10 μL of enzyme with a final concentration of 0.2 U/mL in BSA ([…] in PBS), and 20 μL of DTNB (5 mM in PBS). Then, the plates were preincubated at 37 °C for 10 min. Afterwards, 20 μL of ATCh (10 mM in PBS) was added into the well. After incubation at 37 °C for 20 min, the 96-well plates were read at 405 nm on the microplate reader, and the inhibition ratios to AChE were calculated using the following equation, where Asample blank stands for the absorbance of a well without enzyme, Asample stands for the absorbance of the treatment, Acontorl stands for the absorbance of the well without the sample, and Ablank stands for the absorbance of the well without the sample and enzyme. Donepezil was taken as a positive control. Inhibition of AChE (%)=[(Acontrol−Ablank)−(Asample−Asample blank)]/(Acontrol−Ablank)×100%
# The inhibition rates and concentration logarithm (lnC) values were imported into the Origin 8.0 software (OriginLab Co., Ltd., Northampton, MA, USA). The cubic polynomial regression equation was used to calculate ln(IC50). Then, IC50 was calculated using Microsoft Excel.
# [10] = DPPH free radical scavenging assay; conditions: 0.16 mM DPPH, 30 min in darkness at room temperature
# Description: The free radical scavenging potentials of compounds 1‒10 were evaluated in 96-well plates using the DPPH free radical scavenging assay described by Sharma and Bhat. A total of 100 μL of the reaction mixture was composed of 50 μL of 0.16 mM DPPH (Sigma-Aldrich, St. Louis, MO, USA) in methanol and 50 μL of the test compound (in DMSO) with different concentrations (Asample). The reaction mixture was incubated for 30 min in darkness at room temperature. Meanwhile, 50 μL of 0.16 mM DPPH with 50 μL of DMSO was used as control (Acontrol), 50 μL of methanol and 50 μL of different concentrations of the test compound in DMSO were used as the sample blanks (Asample blank), 50 μL methanol with 50 μL DMSO was used as the blank (Ablank), while vitamin C was taken as a positive control. The absorbance was measured at 517 nm on the microplate reader. Scavenging capacity (%)=[(Acontrol−Ablank)−(Asample−Asample blank)]/(Acontrol−Ablank)×100%
# The EC50 value is the concentration required to scavenge 50% of DPPH radicals. Likewise, the EC50 was calculated using Origin 8.0 plotting and cubic polynomial regression.
# [11] = Brine shrimp larva lethality test; format: in vivo, Artemia salina; conditions: 24 h at 28 °C, read-out: Larvicidal Activity (LC50)
# Description: Compounds 1‒10 were evaluated for larvicidality using the brine shrimp (Artemia salina) larva lethality test. 0.15 g of frozen eggs of brine shrimp larva (purchased from Aijia Aquarium Co., Zhanjiang, China) were activated at room temperature for 12 h. After activation, eggs were added to 1 L of artificial seawater (3% sea salt), ventilated with air for 420 mL/min, then kept at a brightness at 1000 lux and incubated at 28 °C for 24 h. After incubation, the larvae were induced to the top of the separating funnel by phototaxis, and the dead ones on bottom were discharged. Then, in each well of the 96-well plate, 1 μL of test compounds (in DMSO) with different concentrations and 99 μL of seawater containing 20‒30 live larvae were added. After incubation under light at 28 °C for 24 h, recorded the numbers of dead larvae. Finally, 10 μL of the Lucus reagent were added into each well and the total number of brine shrimp larva in the well were counted. DMSO and Hg(NO3)2 were used as blank control and positive control, respectively. Lethality rate (%)=(lethality of treatment−lethality of blank control)/survival rate of blank control×100%
# The brine shrimp larva LC50 value is the concentration required to kill 50% of the larvae. Likewise, the LC50 was calculated using Origin 8.0 plotting and cubic polynomial regression.
# [12] = Artemia salina (brine shrimp) larvae, live brine shrimp larvae in 96-well plate, other: immersion in seawater containing the compound
# T1 sequence (O42275 24-633): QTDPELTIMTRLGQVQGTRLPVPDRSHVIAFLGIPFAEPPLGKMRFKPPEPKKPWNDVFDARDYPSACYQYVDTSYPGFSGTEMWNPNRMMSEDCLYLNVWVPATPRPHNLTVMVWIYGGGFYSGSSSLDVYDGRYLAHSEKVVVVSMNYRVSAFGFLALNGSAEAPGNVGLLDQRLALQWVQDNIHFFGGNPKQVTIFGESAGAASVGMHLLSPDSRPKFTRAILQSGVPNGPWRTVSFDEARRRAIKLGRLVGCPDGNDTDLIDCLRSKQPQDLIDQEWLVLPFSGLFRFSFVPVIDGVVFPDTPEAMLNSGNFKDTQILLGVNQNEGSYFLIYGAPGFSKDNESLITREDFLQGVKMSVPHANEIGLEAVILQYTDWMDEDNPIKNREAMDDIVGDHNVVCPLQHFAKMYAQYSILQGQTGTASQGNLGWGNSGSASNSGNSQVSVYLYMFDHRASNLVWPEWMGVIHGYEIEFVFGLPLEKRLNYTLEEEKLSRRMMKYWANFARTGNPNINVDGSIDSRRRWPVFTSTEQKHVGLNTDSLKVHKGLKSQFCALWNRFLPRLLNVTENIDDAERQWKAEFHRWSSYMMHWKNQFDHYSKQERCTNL
SMILES,Zone of Inhibition [1],zone of inhibition at 10 µg/disc [2],zone of inhibition at 10 µg/disc [3],zone of inhibition at 10 µg/disc [4],MIC [5],MIC [6],"MIC ([7]; Vibrio, V. parahemolyticus, microdilution method, read-out: MIC)",zone of inhibition at 10 µg/disc [1],MIC [8],MIC ([7]; Vibrio),IC50 [9],EC50 [10],"LC50 at 24 h [11, 12]",Zone of Inhibition [2],Zone of Inhibition [4],Zone of Inhibition [3],"LC50 at 24 h ([11]; Artemia salina (brine shrimp) larvae, in vivo, other: compound added to the seawater holding the larvae)","MIC ([7]; V. parahemolyticus, microdilution method, read-out: MIC)","LC50 at 24 h ([11]; brine shrimp (Artemia salina), in vivo, brine shrimp larvae)"
"CC1(C)S[C@@H]2[C@H](NC(=O)[C@H](N)c3ccccc3)C(=O)N2[C@H]1C(=O)O [Ampicillin, reference compound]",-,12 ± 1.4 mm,9 mm,14 mm,1.6 µM,6.4 µM,102 µM,,,,,,,,,,,,
"C/C=C(\C)c1cc(OC(=O)c2c(C)cc(O)cc2O)c(C)c(O)c1C(=O)O [Compound 1, (E)-6-(but-2-en-2-yl)-4-((2,4-dihydroxy-6-methylbenzoyl)oxy)-2-hydroxy-3-methylbenzoic acid]",,7.7 ± 0.6 mm,9.3 ± 0.6 mm,12 ± 1 mm,102 µM,51.2 µM,,8.3 ± 0.6 mm,12.8 µM,> 102 µM,> 102 µM,> 102 µM,> 102 µM,,,,,,
"C/C=C(\C)c1cc(O)c(C)c(OC(=O)c2c(/C(C)=C/C)cc(O)c(C)c2O)c1 [Compound 2, agonodepside A]",,,8 mm,,,,,6 ± 0.5 mm,,> 102 µM,> 102 µM,> 102 µM,> 102 µM,-,-,,,,
"CC=C(C)c1c(Cl)c(O)c(C)c2c1Oc1c(Cl)c(O)c(Cl)c(C)c1C(=O)O2 [Compound 3, nornidulin]",,12.2 ± 0.3 mm,,,> 102 µM,,,12.1 ± 0.2 mm,> 102 µM,,> 102 µM,> 102 µM,,,-,-,12.8 µM,,
"CC=C(C)c1c(Cl)c(OC)c(C)c2c1Oc1c(Cl)c(O)c(Cl)c(C)c1C(=O)O2 [Compound 4, nidulin]",,9.5 ± 0.6 mm,,9 mm,> 102 µM,102 µM,,9 mm,> 102 µM,,> 102 µM,> 102 µM,4.5 µM,,,-,,,
"CC=C(C)c1c(Br)c(O)c(C)c2c1Oc1c(Br)c(O)cc(C)c1C(=O)O2 [Compound 5, aspergillusidone F]",,11.9 ± 0.2 mm,6.3 ± 0.6 mm,14.5 ± 0.6 mm,6.4 µM,25.6 µM,,7.5 ± 0.6 mm,> 102 µM,> 102 µM,> 102 µM,> 102 µM,12.8 µM,,,,,,
"C/C=C(\C)c1cc(O)c(C)c2c1Oc1cc(O)cc(C)c1C(=O)O2 [Compound 6, unguinol]",,8.7 ± 2.1 mm,7 mm,7 mm,102 µM,> 102 µM,,8 ± 0.5 mm,> 102 µM,> 102 µM,> 102 µM,> 102 µM,> 102 µM,,,,,,
"CC(C)[C@H]1NC(=O)[C@H](Cc2ccccc2)NC(=O)[C@@H](C(C)C)NC(=O)[C@@H](C)NC(=O)CCCNC(=O)[C@@H](Cc2c[nH]c3ccccc23)NC(=O)[C@@H](C)NC1=O [Compound 10, unguisin A] (cyclo(F[dV][dA][dW][GABA][dA][dV]))",,,,,,,,,,,> 102 µM,,,,,,,>102.4 µM,> 102 µM
"CC(=O)N1CCN(c2ccc(OCC3COC(Cn4ccnc4)(c4ccc(Cl)cc4Cl)O3)cc2)CC1 (stereo not shown) [Ketoconazole, reference compound]",,,,,,,,22 mm,1.9 µM,,,,,-,-,-,,,
"O=C1O[C@H]([C@@H](O)CO)C(O)=C1O [Vitamin C, vitamin C, reference compound]",,,,,,,,,,,,31.8 µM,,,,,,,
